# Positions of bridges follow the written chain, without caps; N, C: chain ends. Non-standard residues stand in square brackets, D forms with d. Residues, ends and D or L forms follow the SMILES beside them. Orn(N3) = [N-]=[N+]=NCCC[C@H](N)C(=O)O
# What was measured:
# [1] = system: U87MG cells; assay: Integrin-blocking competition: cell proliferation (CCK-8) after pre-treatment with EETI-2.5F (1); type: cell-based; details: 1 μM 1, 3 h pre-treatment and co-treatment
# Protocol: (§1) U87MG, and PANC-1 cells were grown in Dulbecco's Modified Eagle Medium (DMEM) with 10% fetal bovine serum (FBS) and 1% penicillin/streptomycin. MDA-MB-468 cells were grown in DMEM and Ham's F-12 medium (DMEM/F12) with 10% FBS and 1% penicillin/streptomycin. A2780 and BxPC3 cells were grown in Roswell Park Memorial Institute medium (RPMI) 1640+L-glutamine, with 10% FBS and 1% penicillin/streptomycin. D270 cells were grown in MEM (Richter's modification, no phenol red) with 10% FBS and 0.1% Gentamicin. Unless otherwise specified, cells were incubated at 37° C., 5% CO2. Flow cytometry was performed using an EMD Millpore Guava EasyCyte 8HT flow cytometer and the resulting data were evaluated using FlowJo software provided by TreeStar, Inc. Cell proliferation was measured using the Dojindo Cell Counting Kit-8 by replacing the media in each well with 100 μL of media containing 10% WST-8. After incubation for 1 h at 37° C., absorbance, A, at 450 nm was measured with a BioTek Synergy H4 microtiter plate reader. The background signal of CCK-8 alone was subtracted from all samples. Cell proliferation was then expressed as a percentage of absorbance relative to the control of untreated cells (Equation 2). Nonlinear regression analysis was performed using GraphPad Prism.
# One possible explanation for the apparent hENT1-independence of 5d is that its route of internalization could be integrin-mediated. The role of integrin-binding in the biological potency and hENT1-independence of 5d was determined. A competition experiment was carried out in which U87MG cells were pre-treated with unconjugated EETI-2.5F (1) in order to block integrins on the cell surface. The role of integrin-binding was studied by measuring the proliferation of U87MG cells that had been pre-treated with EETI-2.5F (1) when exposed to increasing doses of 3 and KDCs 5a, 5c, and 5d. […] Media used to prepare varying concentrations of drug, protein, or protein-drug conjugate also contained 1 μM of 1. Prior to treatment, cells were incubated for 3 h at 37° C., 5% CO2 with fresh media containing 1 μM 1. After this pre-treatment, cells were incubated with varying concentrations of 5a, 5c, or 5d for 24 h and then media was replaced with fresh media and cells were incubated for an additional 48 h. Cell proliferation was measured using the Cell Counting Kit-8 by replacing the media in each well with 100 μL of media containing 10% WST-8. After incubation for 1 h at 37° C., absorbance at 450 nm was measured with a Synergy H4 microtiter plate reader. Cell proliferation was measured according to the method described in Section 1.3. Error bars represent the standard deviation of experiments performed in triplicate.
# [2] = system: U87MG cells; assay: Premature drug release study: cell proliferation (CCK-8) with hENT1 inhibitor 6 co-administered; type: cell-based; details: for Fold Increase in ED50 in U87MG Cells: ED50 with 6 / ED50 without 6, minus 1
# Protocol: as §1
# The relative extent of premature drug-release in the cases of 5a, 5c, and 5d was next determined in order to identify the linker best-suited for delivering the drug payload intracellularly. An established technique for blocking the cellular uptake of Gemcitabine by using S (4-nitrobenzyl)-6-thioinosine (6) was employed, which is known to inhibit human equilibrative nucleoside transporters, such as hENT1. Because hENT1 is a critical regulator of the cellular internalization of Gemcitabine, it was reasoned that by inhibiting its activity with 6, the cytotoxic effect of any drug payload that was released in the extracellular environment could be diminished. It was anticipated that this would allow the distinction between KDCs that were potent due to the undesirable release of Gemcitabine outside of the cell from those that released Gemcitabine intracellularly (FIG. 6). The extent of premature drug release in the extracellular environment was studied by inhibiting activity of nucleoside transporters (such as hENT1) of U87MG cells through the use of the hENT1 inhibitor S-(4-nitrobenzyl)-6-thioinosine (6). […] In a similar fashion, it was expected that for KDCs which released a significant amount of the drug payload in the extracellular environment, an increase in the concentration of 6 should result in a concomitant increase in ED50 value.
# Media used to prepare varying concentrations of drug, protein, or protein-drug conjugate also contained varying concentrations of the hENT1 inhibitor, 6. Additionally, prior to treatment, cell were incubated at 37° C., 5% CO2 with fresh media containing the varying concentrations of 6 for 2 h. Cell proliferation was measured using the Cell Counting Kit-8 by replacing the media in each well with 100 μL of media containing 10% WST-8. After incubation for 1 h at 37° C., absorbance at 450 nm was measured with a Synergy H4 microtiter plate reader. ED50 values were determined by nonlinear regression analysis. Example dose-response curves for 3 (FIG. 7) and 5d (FIG. 8) are provided. Cell proliferation was measured according to the method described in Section 1.3. Error bars represent the standard deviation of experiments performed in triplicate.
# These values were normalized as Fold Increase in ED50 (defined in Equation 2) by dividing the ED50 of each drug when 6 was co-administered at concentration=C by the ED50 of that same drug when no 6 was added, then subtracting 1 (thus, a “0-fold increase” would mean no increase, while a “1-fold increase” would mean that the ED50 value had doubled). Fold Increase in ED50 for each drug at each concentration of 6 is provided in Table 5, and these values were used to generate FIG. 9.
# [3] = system: U87MG cells; assay: Cell proliferation, CCK-8 colorimetric assay; type: cell-based; details: U87MG cells; for Potency / growth inhibition in U87MG cells (in words): 4 d; for EC50: 4 d incubation, vs untreated control, read-out: ED50 (nM), potency
# Protocol: as §1
# Next, the potency of each KDC was tested in a cell-proliferation experiment. […] Cells were seeded in a 96-well plate at a density of 2,500 cells per well and grown overnight at 37° C., 5% CO2 in DMEM with 10% FBS and 1% penicillin/streptomycin. Cells were subsequently treated with 100 μL of fresh media, containing varying concentrations of drug, protein, or protein-drug conjugate and incubated for 4 d at 37° C., 5% CO2. Cell proliferation was measured according to the method described in Section 1.3. Error bars represent the standard deviation of experiments performed in triplicate. […] Given that the linker must be cleaved to release free Gemcitabine in order for the payload to become active, the low potency of 5b can be explained by the greater stability of the carbamate group as compared to the other linkers tested.
# [4] = system: U87MG cells; assay: Competition binding assay with AF488-labeled EETI-2.5F (AF488-1), flow cytometry; details: for IC50: competition with 1 nM AF488-1, 4° C., 3 hours, read-out: IC50 (nM), binding affinity
# Protocol: Once the knottin-drug conjugates 5a-d were prepared, their binding affinity to U87MG glioblastoma cells, which are known to have elevated expression of tumor-associated integrins, was tested. […] To measure the relative binding affinities of knottins 1 and 2 and KDCs 5a-d, competition binding assays were performed using AlexaFluor 488-conjugated EETI-2.5F (AF488-1) as previously described (J. W. Kim, et al., J. Am. Chem. Soc. 2015, 137, 6-9). Cells (5×10^4 per sample) were detached with 0.05% Trypsin-EDTA, washed with IBB (25 mM Tris pH 7.4, 150 mM NaCl, 2 mM CaCl2, 1 mM MgCl2, 1 mM MnCl2, and 0.1% bovine serum albumin), and incubated with 1 nM AF488-1 and varying concentrations of competitors in 800 μL of IBB at 4° C. for 3 hours. The cells were washed twice with 800 μL of PBSA (phosphate buffered saline containing 0.1% bovine serum albumin) and the fluorescence of the surface-bound AF488-1 was determined using flow cytometry. The fluorescence was normalized to that of cells treated with AF488-1 alone to obtain the fraction bound. Half-maximal inhibitory concentration (IC50) values were determined by nonlinear regression analysis. Error bars represent the standard deviation of experiments performed in triplicate.
SMILES,Effect of integrin blocking by pre-treatment with 1 on potency (in words) [1],"Effect of hENT1 inhibitor 6 on potency (ED50) (in words) ([2]; U87MG cells, increasing concentrations of 6 up to 10 μM)",Fold Increase in ED50 in U87MG Cells ([2]; [6] = 0 nM),Fold Increase in ED50 in U87MG Cells ([2]; [6] = 1 nM),Fold Increase in ED50 in U87MG Cells ([2]; [6] = 10 nM),Fold Increase in ED50 in U87MG Cells ([2]; [6] = 100 nM),Fold Increase in ED50 in U87MG Cells ([2]; [6] = 1000 nM),Fold Increase in ED50 in U87MG Cells ([2]; [6] = 10000 nM),Potency / growth inhibition in U87MG cells (in words) [3],EC50 [3] [nM],IC50 [4] [nM],Binding affinity to U87MG cells (in words) [4]
CC(C)C[C@@H]1NC(=O)[C@@H]2CSSC[C@@H](C(=O)NCC(=O)O)NC(=O)[C@H](Cc3ccccc3)NC(=O)CNC(=O)[C@H](CC(N)=O)NC(=O)[C@@H]3CCCN3C(=O)CNC(=O)[C@@H]3CSSC[C@H](NC(=O)[C@H]([C@@H](C)O)NC(=O)[C@H](CC(C)C)NC(=O)[C@@H]4CCCN4C(=O)[C@@H]4CCCN4C(=O)[C@H](CC(N)=O)NC(=O)[C@H](CC(=O)O)NC(=O)CNC(=O)[C@H](CCCNC(=N)N)NC(=O)[C@@H]4CCCN4C(=O)[C@H](CCCNC(=N)N)NC(=O)[C@@H]4CCCN4C(=O)[C@@H](NC(=O)CN)CSSC[C@H](NC(=O)CNC(=O)[C@H](C)NC1=O)C(=O)N[C@@H](C(C)C)C(=O)N3)C(=O)N[C@@H](CCCn1cc(CCC(=O)OC[C@H]3O[C@@H](n4ccc(N)nc4=O)C(F)(F)[C@@H]3O)nn1)C(=O)N[C@@H](CCC(N)=O)C(=O)N[C@@H](CC(=O)O)C(=O)N[C@@H](CO)C(=O)N[C@@H](CC(=O)O)C(=O)N2 [5a],did not diminish the potency,increased significantly,0,1.1 ± 0.5,3.2 ± 0.3,14.5 ± 0.5,17.9 ± 0.0,134.7 ± 0.4,low-nanomolar ED50 values,8.5 ± 3.3,5.2 ± 3.6,–
CC(C)C[C@@H]1NC(=O)[C@@H]2CSSC[C@@H](C(=O)NCC(=O)O)NC(=O)[C@H](Cc3ccccc3)NC(=O)CNC(=O)[C@H](CC(N)=O)NC(=O)[C@@H]3CCCN3C(=O)CNC(=O)[C@@H]3CSSC[C@H](NC(=O)[C@H]([C@@H](C)O)NC(=O)[C@H](CC(C)C)NC(=O)[C@@H]4CCCN4C(=O)[C@@H]4CCCN4C(=O)[C@H](CC(N)=O)NC(=O)[C@H](CC(=O)O)NC(=O)CNC(=O)[C@H](CCCNC(=N)N)NC(=O)[C@@H]4CCCN4C(=O)[C@H](CCCNC(=N)N)NC(=O)[C@@H]4CCCN4C(=O)[C@@H](NC(=O)CN)CSSC[C@H](NC(=O)CNC(=O)[C@H](C)NC1=O)C(=O)N[C@@H](C(C)C)C(=O)N3)C(=O)N[C@@H](CCCn1cc(CCCNC(=O)OC[C@H]3O[C@@H](n4ccc(N)nc4=O)C(F)(F)[C@@H]3O)nn1)C(=O)N[C@@H](CCC(N)=O)C(=O)N[C@@H](CC(=O)O)C(=O)N[C@@H](CO)C(=O)N[C@@H](CC(=O)O)C(=O)N2 [5b],–,–,–,–,–,–,–,–,lacked significant potency,> 1000,3.3 ± 0.2,–
"CC(C)C[C@@H]1NC(=O)[C@@H]2CSSC[C@@H](C(=O)NCC(=O)O)NC(=O)[C@H](Cc3ccccc3)NC(=O)CNC(=O)[C@H](CC(N)=O)NC(=O)[C@@H]3CCCN3C(=O)CNC(=O)[C@@H]3CSSC[C@H](NC(=O)[C@H]([C@@H](C)O)NC(=O)[C@H](CC(C)C)NC(=O)[C@@H]4CCCN4C(=O)[C@@H]4CCCN4C(=O)[C@H](CC(N)=O)NC(=O)[C@H](CC(=O)O)NC(=O)CNC(=O)[C@H](CCCNC(=N)N)NC(=O)[C@@H]4CCCN4C(=O)[C@H](CCCNC(=N)N)NC(=O)[C@@H]4CCCN4C(=O)[C@@H](NC(=O)CN)CSSC[C@H](NC(=O)CNC(=O)[C@H](C)NC1=O)C(=O)N[C@@H](C(C)C)C(=O)N3)C(=O)N[C@@H](CCCN=[N+]=[N-])C(=O)N[C@@H](CCC(N)=O)C(=O)N[C@@H](CC(=O)O)C(=O)N[C@@H](CO)C(=O)N[C@@H](CC(=O)O)C(=O)N2 [compound 2] (H-GCPRPRGDNPPLTC[Orn(N3)]QDSDCLAGCVCGPNGFCG-OH; disulfide 2-24, 14-26, 20-32; N-terminus and C-terminus assumed)",–,–,–,–,–,–,–,–,did not show significant growth-inhibition activity,> 1000,1.1 ± 1.8,low-nanomolar binding affinity
